Assay results as given in ChEMBL document CHEMBL1129140, “Synthesis of C-oxetanosyl-thiazole and its carbocyclic analog nucleosides as potential chemotherapeutic agents” (Bioorg Med Chem Lett, 1996).
The source made the active and inactive calls. No cut-off for these calls is given here.

Key:
Type in all cases: functional, cell-based
[1] = tested on: PC-12; assay: Inhibition of PC12 cell differentiation at 100 ug/ml (No effect); details: Rattus norvegicus
[2] = biological target: High affinity nerve growth factor receptor (Rattus norvegicus) (UniProt P35739); assay: Inhibition of NGF receptor-induced differentiation of PC12 cells at 100 ug/ml (No effect); details: PC-12
[3] = biological target: High affinity nerve growth factor receptor (Rattus norvegicus) (UniProt P35739); assay: Induction of NGF receptor-induced differentiation of PC12 cells at 1-100 ug/ml; details: PC-12
[4] = tested on: PC-12; assay: Induction of PC12 cell differentiation at 100 ug/ml; details: Rattus norvegicus
[5] = biological target: High affinity nerve growth factor receptor (Rattus norvegicus) (UniProt P35739); assay: Induction of NGF receptor-induced differentiation of PC12 cells at 100 and 10 ug/ml; details: PC-12

High affinity nerve growth factor receptor (Rattus norvegicus), sequence (P35739 whole entry): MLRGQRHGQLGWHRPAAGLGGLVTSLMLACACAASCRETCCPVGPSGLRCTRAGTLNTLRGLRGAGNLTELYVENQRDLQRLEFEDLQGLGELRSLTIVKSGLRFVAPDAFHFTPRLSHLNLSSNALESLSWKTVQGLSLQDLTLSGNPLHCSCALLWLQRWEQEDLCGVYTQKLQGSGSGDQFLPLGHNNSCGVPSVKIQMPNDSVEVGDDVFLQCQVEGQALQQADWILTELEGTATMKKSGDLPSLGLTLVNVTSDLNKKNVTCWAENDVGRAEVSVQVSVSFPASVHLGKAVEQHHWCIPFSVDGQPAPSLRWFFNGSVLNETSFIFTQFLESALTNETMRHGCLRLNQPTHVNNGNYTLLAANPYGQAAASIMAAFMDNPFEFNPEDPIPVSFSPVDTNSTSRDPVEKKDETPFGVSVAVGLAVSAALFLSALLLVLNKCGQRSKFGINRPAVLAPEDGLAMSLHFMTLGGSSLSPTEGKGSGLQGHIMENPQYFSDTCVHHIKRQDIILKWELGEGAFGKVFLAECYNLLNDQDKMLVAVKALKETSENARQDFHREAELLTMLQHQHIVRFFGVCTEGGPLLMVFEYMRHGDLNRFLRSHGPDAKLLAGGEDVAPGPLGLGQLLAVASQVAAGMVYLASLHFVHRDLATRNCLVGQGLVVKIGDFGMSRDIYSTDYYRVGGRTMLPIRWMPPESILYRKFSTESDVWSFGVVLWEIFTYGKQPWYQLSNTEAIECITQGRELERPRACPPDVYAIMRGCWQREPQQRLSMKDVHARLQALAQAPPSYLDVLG

NC(=O)c1csc([C@@H]2O[C@H](CO)C2CO)n1 (stereo not given in full)
NA [1]: inactive | NA [2]: inactive

NC(=O)c1csc([C@@H]2O[C@H](CO)C(O)[C@H]2O)n1 (single isomer, unassigned)
Activity [3]: Active

NC(=O)c1csc([C@@H]2C[C@H](CO)C2CO)n1 (stereo not given in full)
Induction [4]: Active | Induction [5]: Active
